Laboratory results reported in US6699676B1, “Uses of ouabain and ouabain-like molecules in apoptosis related pathologies” (Corporation du Centre de Recherche du Centre, Hospitalier …, priority 1999, dated 2004).

What was measured:
[1] = tested on: VSMC-E1A; experiment: Chromatin cleavage assay in VSMC-E1A; assay type: cell-based, rat; conditions: VSMC-E1A; for Increment of chromatin fragments triggered by serum withdrawal(%): 1 mM, pretreated 2 hours then 3 hours with or without calf serum, control increment taken as 100%
Description: FIG. 2. Effect of ouabain on chromatin cleavage in VSMC-E1A. (A) Kinetics of the accumulation of chromatin fragments in control (curves 1, 3) and ouabain-treated (curves 2, 4) VSMC-E1A in the presence of 10% calf serum (CS, curves 1, 2) or in CS-free medium (curves 3, 4). Mean values ±S.E. obtained in experiments performed in quadruplicate are given. (B) Content of chromatin fragments in VSMC-E1A subjected to 6 hr of incubation in serum-supplied medium with or without 1 mM ouabain, 0.25 μM staurosporine, 1 μM okadaic acid and 350 mM mannitol. Mean values±S.E. obtained in 3 experiments performed in quadruplicate are given. ★, ★★ p<0.05 and 0.001 compared to ouabain-untreated cells. In both experiments, ouabain was added 1 hour before triggering of apoptosis.
Cells were incubated in K^+-containing medium consisting of 91 mM NaCl, 5 mM KCl, 0.9 mM NaH2PO4, 44 mM NaHCO3, 1.8 mM CaCl2, 0.8 mM MgCl2, 33 mM HEPES and 5 mM D-glucose (pH 7.4) (lines 1 and 2) or in K^+-depleted medium (equimolar substitution of KCl by NaCl, line 3) with or without 10% calf serum (CS) and 1 mM ouabain as indicated. In experiments with VSMC-MYC and VSMC-E1A, cells were preincubated for 1 hr with ouabain or with K^+-depleted medium in the presence of CS and then subjected to treatment with serum-free media. After 24 hours (VSMC) or 6 hours (VSMC-MYC and VSMC-E1A), the content of chromatin fragments was measured as described in Experimental Procedures. Mean values±S.E. obtained in 3 experiments performed in quadruplicate (VSMC) or triplicate (VSMC-MYC, VSMC-E1A) are given. ★, ★★ p<0.05 and 0.001 compared to the controls.
To estimate chromatin cleavage, cells were incubated for 1 hr in the presence of 10% calf serum (CS) in the control solution (DMEM, [Na^+]=137 mM; [K^+]=5 mM—line 1) or under equimolar substitution of NaCl by KCl ([Na^+]=14 mM; [K^+]=128 mM—line 2) with or without 1 mM ouabain and then for an additional 6 hours in the same media with or without CS. Intracellular Na^+ and K^+ content was measured as steady-state distribution of isotopes after 24 hours preincubation of cells in control Na^+-enriched solution containing 0.5 μCi/ml ^86Rb or 2 μCilml ^22Na, and additional 6 hours incubation in Na^+—(line 1) or K^+—(line 2) enriched medium, containing 10% CS and isotopes with the same specific activity with or without 1 mM ouabain. For more details see Experimental Procedures. Mean values±S.E. obtained in 3 experiments performed in triplicate (ion content) or quadruplicate (chromatin cleavage) are given. ★p<0.001 compared to ouabain-untreated cells.
VSMC-E1A cells were pretreated with compounds indicated in the left column during 2 hours in DMEM containing 10% calf serum and then additional 3 hours in the absence or presence of calf serum. The increment of the content of chromatin fragments triggered by serum withdrawal in control cells was taken as 100%. Means+S.E. from experiments performed with quadruplicate are given. ★p<0.001 as compared to control.
(§1) Cells. VSMC were obtained by explant methods from aortas of 10- to 13-week-old male rats as described previously (17), cultured in DMEM with 10% calf serum, 100 U/ml penicillin, 100 µg/ml streptomycin and used between 10 to 16 passages. Cells transfected with c-myc (VSMC-MYC) and E1A-adenovirus (VSMC-E1A) were obtained in accordance with a previously-described protocol (18,19) and were cultured in the same medium with the addition of 500 µg/ml genticin. Jurkat cells were obtained from the American Type Culture Collection and cultured in RPMI 1640 medium supplied with 10% calf serum, antibiotics, sodium pyruvate, glutamate and β-mercaptoethanol.
Chromatin cleavage assay. Chromatin cleavage in VSMC was estimated by a technique described previously in detail (10). Briefly, VSMC grown in 24-well dishes were labeled for 24 hours in serum-supplied DMEM with [^3H]-thymidine (1 μCi/ml), washed with 2×2 ml of DMEM and incubated in serum-supplied DMEM. […]

[2] = tested on: Jurkat cells; experiment: Chromatin cleavage assay in Jurkat cells; assay type: cell-based, human; conditions: for Chromatin fragments (%): Jurkat cells without ouabain, +Fas-L 100 ng/ml, 7 hours
Description: FIG. 4. Effect of ouabain on chromatin cleavage in Jurkat cells. (A) Kinetics of accumulation of chromatin fragments in control (curves 1, 3) and ouabain-treated (curves 2, 4) cells in the absence (curves 1, 2) or presence (curves 3, 4) of 100 ng/ml of anti-human Fas (mouse monoclonal IgM, Upstate Biotechnology, Lake Placid, N.Y.); (B) Content of chromatin fragments in Jurkat cells subjected to 3 hours of incubation with or without 1 mM ouabain, 0.25 μM staurosporine and 350 mM mannitol. In both experiments, ouabain was added 2 hours before triggering of apoptosis. Mean values±S.E. obtained in experiments performed in triplicate are given.
To estimate chromatin cleavage, cells were incubated for 2 hours in the presence of 10% calf serum in the control solution (DMEM, [Na^+]=137 mM; [K^+]=5 mM—line 1) or under equimolar substitution of NaCl with KCl ([Na^+]=14 mM; [K^+]=128 mM—line 2) with or without 1 mM ouabain and then for an additional 7 hours at the same media with or without 100 ng/ml Fas ligand (Fas-L). Intracellular Na^+ and K^+ content was measured as steady-state distribution of isotopes after 24 hours preincubation of cells in control Na^+-enriched solution containing 0.5 μCi/ml ^86Rb or 2 μCi/ml ^22Na, and an additional 6 hours incubation in Na^+—(line 1) or K^+—(line 2) enriched medium containing 10% calf serum, isotopes with the same specific activity with or without 1 mM ouabain. For more details see Experimental Procedures. Mean values±S.E. obtained in experiments performed in triplicate are given. ★, #p<0.01 and 0.001 compared to ouabain-untreated cells.
as §1
Chromatin cleavage assay. Chromatin cleavage in VSMC was estimated by a technique described previously in detail (10). Briefly, VSMC grown in 24-well dishes were labeled for 24 hours in serum-supplied DMEM with [^3H]-thymidine (1 μCi/ml), washed with 2×2 ml of DMEM and incubated in serum-supplied DMEM. In 48 hr, the cells were pretreated with ouabain or K^+-depleted medium as indicated in FIG. 2 and Table 3, washed twice with serum-containing medium and incubated with 0.5 ml of medium with or without ouabain and containing different inducers of apoptosis. To measure the content of chromatin fragments, the cells were transferred on ice and 1 ml of ice-cold lysed buffer (10 mM EDTA, 10 mM tris-HCl, 0.5% triton X100 (pH 8.0)) was added. After 15 min, the cell lysate was transferred to Ependorf tubes, sedimented (12,000 rpm, 10 mm), and 1 ml of supernatant was transferred for the measurement of radioactivity (A1t). The remaining radioactivity from pellets and wells was extracted with 0.5 ml of 1% SDS/4 mM EDTA mixture, combined and counted (A2). Chromatin cleavage was quantified as the content of chromatin fragments normalized by total content of [^3H]-labeled DNA in accordance with the equation [1.5×(A1t−A1o)/(A2+A1t−1.5A1o)]×100% where A1o is the value of A1t before induction of apoptosis. To measure chromatin fragmentation in [^3H]-thymidine-labeled Jurkat cells, they were resuspended at a density of 10^6 cells/ml in medium containing 10% calf serum and the additions indicated in FIG. 4 and Table 4. At the time intervals shown in FIG. 4, 100 μl of cell suspension was mixed with 100 μl of PBS contairung 0.5% triton X100, and the content of chromatin fragments was measured as described previously in detail (20).

[3] = tested on: caspase-3; experiment: Caspase-3 activity in treated Jurkat cells; assay type: cell-based, human; conditions: 3 hours, Fas ligand 100 ng/ml, staurosporine 0.25 μM, mannitol 350 mM
Description: (§2) FIG. 5. Effect of ouabain on caspase-3 activity in VSMC-E1A (A) and Jurkat cells (B). VSMC-E1A and Jurkat cells were pretreated with 1 mM ouabain for 1 and 2 hours, respectively, and the additions indicated below the bars were delivered in media with 10% calf serum and with the baseline (137/5) or inverse (14/128) [Na^+]o/[K^+]o ratio for 6 (VSMC-E1A) or 3 hours (Jurkat cells). In experiments with VSMC-E1A, calf serum (CS) was omitted where indicated (−). Abbreviations: staur.—staurosporine (0.25 μM), ok.ac.—okadaic acid (1 μM), mann.—mannitol (350 mM); Fas-L—Fas ligand (100 ng/ml). Mean values±S.E. obtained in experiments performed in quadruplicate (A) or triplicate (B) are given. ★p<0.001 compared to ouabain-untreated cells.
(§3) Caspase activity. VSMC-E1A seeded in 20 cm^2 flasks and treated as indicated in FIG. 5 were scratched, transferred to centrifuge tubes, washed twice with PBS and lysed in 0.5 ml of buffer A contaming 50 mM tris-HCl (pH 7.4), 5 mM MgCl2, 1 mM EGTA and 0.1% CHAPS. Then, 50-100 μl of cell lysate was mixed with 600 μl of buffer A containing 1 mM dithiothreitol, 40 μM YVAD-AMC or DEVD-AMC with or without 1 μM of caspase-1 and capspase-3 inhibitors (Ac-YVAD-CHO and Ac-DEVD-CHO, respectively), incubated for 2 hours at 37° C. and diluted 15-fold with 80 mM glycine-NaOH buffer (pH 10). Fluorescence of the samples was measured at ex=365 run and em=465 run and calibrated with AMC in the range of 10 to 100 nM. To measure caspase activity in control and ouabain-treated Jurkat cells, 5 ml of suspension containing ˜2×10^7 cells was transferred onto ice and sedimented. The pellet of cells was washed and treated with 0.3 ml of medium A in the same way as VSMC. Protein content was estimated by Bradford methods.

[4] = tested on: caspase-3; assay type: biochemical, rat; conditions: lysates of VSMC-E1A after 6 hours serum withdrawal, 100 mM added, data not shown
Description: (§4) To examine this hypothesis, we measured the activity of caspases in lysates of VSMC-E1A subjected to 6 hours serum withdrawal has been measured.
as §3

[5] = target: T1, caspase-1 (Rattus norvegicus, UniProt P43527); assay type: biochemical; conditions: lysates of VSMC-E1A after 6 hours serum withdrawal, 100 mM added, data not shown
T1 construct: we measured the activity of caspases in lysates of VSMC-E1A subjected to 6 hours serum withdrawal; endogenous in cells; host or cells: VSMC-E1A (rat aortic vascular smooth muscle cells transfected with E1A adenoviral protein), cell lysate
T1 sequence (P43527 119-402): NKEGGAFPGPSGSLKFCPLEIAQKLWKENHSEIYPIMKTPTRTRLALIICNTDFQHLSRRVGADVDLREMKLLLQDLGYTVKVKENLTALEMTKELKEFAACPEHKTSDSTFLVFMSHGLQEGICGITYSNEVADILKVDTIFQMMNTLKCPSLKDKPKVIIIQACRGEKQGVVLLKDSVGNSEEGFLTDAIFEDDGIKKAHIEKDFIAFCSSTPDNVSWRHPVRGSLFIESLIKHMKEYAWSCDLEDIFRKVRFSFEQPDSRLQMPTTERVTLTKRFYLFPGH
Description: as §4, §3

[6] = tested on: caspase-3; experiment: Caspase-3 activity in treated VSMC-E1A; assay type: cell-based, rat; conditions: 6 hours, staurosporine 0.25 μM, okadaic acid 1 μM
Description: as §2, §3

## C[C@H]1O[C@@H](O[C@H]2[C@@H](O)C[C@H](O[C@H]3[C@@H](O)C[C@H](O[C@H]4CC[C@@]5(C)[C@H](CC[C@@H]6[C@@H]5CC[C@]5(C)[C@@H](C7=CC(=O)OC7)CC[C@]65O)C4)O[C@@H]3C)O[C@@H]2C)C[C@H](O)[C@@H]1O [Digitoxin, 5β,20[22]-cardenolide-3β,14-diol-3[O-2,6-dideoxy-β-D-ribohexopyranosyl-(1->4)-2,3-dideoxy-β-D-ribohexo-pyranosyl]oxy]
[1]
  Increment of chromatin fragments triggered by serum withdrawal(%): 24 ± 6 %

## Fas ligand
[2]; medium [Na+]o=14, [K+]o=128 mM
  Chromatin fragments (%): 20.0±2.2%
[2]; medium [Na+]o=14, [K+]o=128 mM, listed as Fas-L
  Chromatin fragments (%): 20.2%
[2]; medium [Na+]o=137, [K+]o=5 mM
  Chromatin fragments (%): 28.5±3.3%
[2]; medium [Na+]o=137, [K+]o=5 mM, listed as Fas-L
  Chromatin fragments (%): 28.5%
[2]; Jurkat cells, 1.5 hour incubation with Fas ligand 100 ng/ml
  increase of the content of chromatin fragments: 10 fold
[2]; control Jurkat cells, 7-hr incubation
  increment of the content of chromatin fragments triggered by Fas ligand: 23.6±3.9%
[3]
  increase of caspase-3 activity: ~30 fold

## [Cl-].[Na+] [NaCl]
[4]
  decrease of caspase-3 activity: the same level of inhibition
[5]
  decrease of caspase-1 activity: the same level of inhibition

## C=C1[C@@H](O)[C@@H]2O[C@]3(CC[C@H](/C=C/[C@@H](C)[C@@H]4CC(C)=C[C@@]5(O[C@H](C[C@@](C)(O)C(=O)O)CC[C@H]5O)O4)O3)CC[C@H]2O[C@@H]1[C@@H](O)C[C@H](C)[C@H]1O[C@@]2(CCCCO2)CC[C@H]1C [okadaic acid]
[1]; 6 hr, serum-supplied medium, 0.25 μM staurosporine, 1 μM okadaic acid
  content of chromatin fragments: 28.3±4.2%
[6]
  increase of caspase-3 activity: 10 fold

## C[C@H]1O[C@@H](O[C@H]2[C@@H](O)C[C@H](O[C@H]3[C@@H](O)C[C@H](O[C@H]4CC[C@@]5(C)[C@H](CC[C@@H]6[C@@H]5C[C@@H](O)[C@]5(C)[C@@H](C7=CC(=O)OC7)CC[C@]65O)C4)O[C@@H]3C)O[C@@H]2C)C[C@H](O)[C@@H]1O [Digoxin, 12β-hydroxy-digitoxin]
[1]
  Increment of chromatin fragments triggered by serum withdrawal(%): 18 ± 4 %

## [Cl-].[K+] [KCl]
[4]
  decrease of caspase-3 activity: 10-20%
[5]
  decrease of caspase-1 activity: 10-20%
